Key:
Assay in all cases: relative viability (nuclei count vs DMSO), 5 days (fraction); higher = more cells survive
KN-93 + Foretinib = compound: CN(C/C=C/C1=CC=C(C=C1)Cl)CC2=CC=CC=C2N(CCO)S(=O)(=O)C3=CC=C(C=C3)OC [KN-93] + COc1cc2c(Oc3ccc(NC(=O)C4(C(=O)Nc5ccc(F)cc5)CC4)cc3F)ccnc2cc1OCCCN1CCOCC1 [Foretinib] (partner 0.25 µM)
Procedure, shortened: (§1)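 Relative viability is defined as nuclei in treated wells over nuclei in vehicle wells. Duplicate plates were run and medians reported. Lung cancer cell lines in 1536-well plates were dosed by pin tool one day after seeding, with one drug or with a fixed anchor-drug dose plus five library-drug doses (not always all listed) in √10 steps, and nuclei were counted after 5 days.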

KN-93 + Tozasertib = compound: CN(C/C=C/C1=CC=C(C=C1)Cl)CC2=CC=CC=C2N(CCO)S(=O)(=O)C3=CC=C(C=C3)OC [KN-93] + Cc1cc(Nc2cc(N3CCN(C)CC3)nc(Sc3ccc(NC(=O)C4CC4)cc3)n2)n[nH]1 [Tozasertib] (partner 0.1 µM)
Procedure, shortened: as §1

KN-93 + Pemetrexed = compound: CN(C/C=C/C1=CC=C(C=C1)Cl)CC2=CC=CC=C2N(CCO)S(=O)(=O)C3=CC=C(C=C3)OC [KN-93] + Nc1nc2[nH]cc(CCc3ccc(C(=O)N[C@@H](CCC(=O)O)C(=O)O)cc3)c2c(=O)[nH]1 [Pemetrexed] (partner 0.2 µM)
Procedure, shortened: as §1

KN-93 + Navitoclax = compound: CN(C/C=C/C1=CC=C(C=C1)Cl)CC2=CC=CC=C2N(CCO)S(=O)(=O)C3=CC=C(C=C3)OC [KN-93] + CC1(C)CCC(c2ccc(Cl)cc2)=C(CN2CCN(c3ccc(C(=O)NS(=O)(=O)c4ccc(N[C@H](CCN5CCOCC5)CSc5ccccc5)c(S(=O)(=O)C(F)(F)F)c4)cc3)CC2)C1 [Navitoclax] (partner 0.5 µM)
Procedure, shortened: as §1

KN-93 + OSI-027 = compound: CN(C/C=C/C1=CC=C(C=C1)Cl)CC2=CC=CC=C2N(CCO)S(=O)(=O)C3=CC=C(C=C3)OC [KN-93] + COc1cccc2cc(-c3nc([C@H]4CC[C@H](C(=O)O)CC4)n4ncnc(N)c34)[nH]c12 [OSI-027] (partner 0.5 µM)
Procedure, shortened: as §1

| Cell Line | relative viability (KN-93 + Foretinib; first compound 0.08 µM) | relative viability (KN-93 + Foretinib; first compound 0.253 µM) | relative viability (KN-93 + Foretinib; first compound 2.53 µM) | relative viability (KN-93 + Foretinib; first compound 8 µM) | relative viability (KN-93 + Tozasertib; first compound 0.08 µM) | relative viability (KN-93 + Tozasertib; first compound 0.253 µM) | relative viability (KN-93 + Tozasertib; first compound 2.53 µM) | relative viability (KN-93 + Tozasertib; first compound 8 µM) | relative viability (KN-93 + Pemetrexed; first compound 0.08 µM) | relative viability (KN-93 + Pemetrexed; first compound 0.253 µM) | relative viability (KN-93 + Pemetrexed; first compound 2.53 µM) | relative viability (KN-93 + Pemetrexed; first compound 8 µM) | relative viability (KN-93 + Navitoclax; first compound 0.08 µM) | relative viability (KN-93 + Navitoclax; first compound 0.253 µM) | relative viability (KN-93 + Navitoclax; first compound 2.53 µM) | relative viability (KN-93 + Navitoclax; first compound 8 µM) | relative viability (KN-93 + OSI-027; first compound 0.08 µM) | relative viability (KN-93 + OSI-027; first compound 0.253 µM) | relative viability (KN-93 + OSI-027; first compound 2.53 µM) | relative viability (KN-93 + OSI-027; first compound 8 µM) |
| --- | --- | --- | --- | --- | --- | --- | --- | --- | --- | --- | --- | --- | --- | --- | --- | --- | --- | --- | --- | --- |
| LXF-289 | 0.982 | 1.01 | 0.944 | 0.805 | 0.201 | 0.25 | 0.215 | 0.147 | 0.925 | 0.926 | 0.977 | 0.684 | 0.97 | 1.08 | 0.918 | 0.631 | 0.875 | 0.967 | 0.873 | 0.634 |
| NCI-H23 | 0.935 | 1.13 | 1.1 | 0.666 | 0.327 | 0.359 | 0.439 | 0.267 | 0.685 | 0.866 | 0.883 | 0.502 | 0.721 | 0.988 | 0.933 | 0.816 | 0.566 | 0.544 | 0.662 | 0.344 |
| NCI-H322M | 0.959 | 0.933 | 0.984 | 0.762 | 0.505 | 0.502 | 0.524 | 0.489 | 0.641 | 0.628 | 0.701 | 0.614 | 1.19 | 1.09 | 1.2 | 1.11 | 0.535 | 0.577 | 0.539 | 0.411 |
| NCI-H441 | 1.08 | 1.23 | 1.2 | 0.73 | 0.639 | 0.806 | 0.553 | 0.435 |  | 0.242 | 0.293 | 0.268 |  | 0.573 | 0.747 | 0.238 | 0.603 | 0.672 | 0.623 | 0.479 |
| NCI-H460 | 0.715 | 1.06 | 1.02 | 0.591 | 0.397 | 0.104 | 0.381 | 0.153 | 0.0661 | 0.0588 | 0.0591 | 0.0687 | 0.39 | 1.29 |  | 0.63 | 0.863 | 0.825 | 0.603 | 0.223 |
| NCI-H520 | 0.885 | 0.952 | 0.768 | 0.711 | 0.455 | 0.447 | 0.459 | 0.382 | 0.72 | 0.738 | 0.658 | 0.422 |  | 1.13 | 1.23 | 0.878 | 0.287 | 0.289 | 0.279 | 0.205 |
| NCI-H596 | 0.862 | 0.989 | 0.886 | 0.532 | 0.783 | 1.02 | 1.06 | 0.747 | 0.528 | 0.493 | 0.589 | 0.455 | 0.996 | 0.891 | 0.966 | 0.575 | 0.769 | 0.726 | 0.755 | 0.252 |
| NCI-H647 | 1.11 | 1.37 | 1.54 | 1.07 | 0.31 | 0.299 | 0.0549 | 0.196 | 0.176 | 0.181 | 0.159 | 0.174 | 0.976 | 1.41 | 1.39 | 0.715 | 0.695 | 0.643 | 0.856 | 0.533 |
| NCI-H838 | 0.946 | 0.977 | 1.13 | 0.905 | 0.256 | 0.257 | 0.252 | 0.235 | 0.258 | 0.278 | 0.25 | 0.214 | 1.04 | 1.06 | 1.31 | 0.946 | 0.443 | 0.328 | 0.445 | 0.41 |
| NCI-H1355 | 0.879 | 0.984 | 1.03 | 0.868 | 0.51 | 0.451 | 0.481 | 0.31 | 1.11 | 0.918 | 1.27 | 0.972 | 0.874 | 0.722 | 0.916 | 0.74 | 0.405 | 0.295 | 0.41 | 0.246 |
| NCI-H1395 | 1.09 | 0.934 | 0.964 | 0.697 | 0.733 | 0.671 | 0.8 | 0.476 | 0.972 | 0.926 | 0.86 | 0.489 | 1.11 | 1.22 | 1.34 | 0.566 | 0.702 | 0.666 | 0.707 | 0.469 |
| NCI-H1437 | 1.17 | 1.26 | 1.13 | 0.64 | 0.37 | 0.433 | 0.383 | 0.264 | 0.317 | 0.312 | 0.247 | 0.19 | 0.92 | 1.23 | 1.07 | 0.476 | 0.885 | 0.984 | 0.852 | 0.651 |
| NCI-H1650 | 1.18 | 1.16 | 1.25 | 0.644 | 0.39 | 0.339 | 0.382 | 0.309 | 0.338 | 0.427 | 0.372 | 0.34 | 1.24 | 1.2 | 1.44 | 0.951 | 0.574 | 0.596 | 0.496 | 0.465 |
| NCI-H1651 | 0.669 | 0.845 | 0.886 | 0.582 | 0.647 | 0.627 | 0.906 | 0.509 | 0.611 | 0.701 | 0.567 | 0.511 | 0.997 | 1.08 | 1.09 | 0.482 | 0.588 | 0.73 | 0.749 | 0.423 |
| NCI-H1666 | 0.85 | 0.996 | 1.01 | 0.959 | 0.599 | 0.662 | 0.57 | 0.454 | 0.844 | 1 | 0.818 | 0.821 | 0.863 | 0.799 | 0.982 | 0.863 | 0.882 | 0.834 | 0.993 | 0.857 |
